Data set [1] in a line: Cutaneous penetration test of caffeine on Franz cell (diffusion, release, storage). Format: in vitro ADME, rat. The conditions noted are these: for average quantity of caffeine per unit surface diffused into the receptor chamber: 2 g deposited, 2.54 cm^2 Franz cell, PBS receptor. Here is the method: The receptor chamber was constituted by a PBS buffer and antibiotics. Diffusion was monitored over time by sampling from the receptor chamber and analysis by high performance liquid chromatography. […] After rinsing the biopsy used in the diffusion study, it was kept in the Franz cell for 24 hours without donors. The quantity of active ingredient liberated in the PBS buffer was then analyzed by HPLC, to study the ability of the skin to temporarily retain the test solution (Release study).

Data set [2] in a line: Vitamin E determination by HPLC (fluorescence). Format: physicochemical. As for the experimental part: The vitamin E content was determined by HPLC (fluorescence) and evaluated for each sample: […]
The nature of data set [3]: Cutaneous penetration study of vitamin E on Franz cell (diffusion, release, storage). Format: in vitro ADME, rat. To be noted: for percentage of vitamin E diffused: 2 g deposited, 2.54 cm^2 Franz cell, ethoxydiglycol receptor. Here is the method:
Cutaneous penetration studies were carried out on products 26-a, 26-b, 26-c and 26-d from example 26. […] The receptor chamber was constituted by ethoxydiglycol and antibiotics. Diffusion was monitored over time by sampling from the receptor chamber then HPLC analysis (fluorescence). […] After rinsing the biopsy used in the diffusion study, it was kept in the Franz cell for 24 hours without donors. The quantity of active ingredient liberated in the ethoxydiglycol was then analyzed by HPLC, underlining the ability of the skin to temporarily retain the test solution (release study).

The nature of data set [4]: Aspect of the solution obtained / nanoparticle formation. Format: physicochemical. Here is the method: The solution was then added at a constant rate (1 ml/s) to distilled water (450 ml) with stirring to form a milky solution. […] The procedure of example 15 was followed but instead of using the compound obtained in example 2, a commercial β-cyclodextrin with an identical molar concentration was used.

In the next data set the test system is skin of rabbits. In words: Evaluation of primary dermal irritation in the rabbit. Format: in vivo. The conditions noted are these: 10% in a 0.5% xanthan gel, undiluted, 0.5 ml. Here is the method:
Toxicological tests were carried out on the compound obtained in example 2a incorporated in an amount of 10% into a 0.5% xanthan gel, by occular evaluation in the rabbit, by a study of the absence of abnormal toxicity by a single oral administration to the rat and by a sensitization power study in the guinea-pig.
At the same time, a toxicological study was carried out under the same experimental conditions on commercial β-cyclodextrin incorporated in an amount of 10% into a 0.5% xanthan gel.
The preparations described above were applied undiluted in a dose of 0.5 ml to the skin of 3 rabbits using the method recommended by the OECD directive regarding the study of “The acute dermal irritant/corrosive effect”.
The products were classified in accordance with the criteria in the order of Feb. 1, 1982 published in the JORF [Official journal of the French Republic] on Feb. 2, 1982.

Setting [5] is: biopsy in ethanolic solution 24 hours after release study.
Setting [6] is: rinsed biopsy kept in Franz cell 24 hours without donors.

Results on four compounds are retold here after patent publication US6524595B1, “Cyclodextrins preferentially substituted on their primary face by acid or amine functions” (priority 2000, dated 2003).

For `Cn1c(=O)c2c(ncn2C)n(C)c1=O` [Caffeine free, caffeine], the entries for the “average quantity of caffeine per unit surface diffused into the receptor chamber” value in data set [1] (0 hours) and in data set [1] (24 hours) were 0 μg/cm^2 and 1783 μg/cm^2, respectively. The “Storage (caffeine still present in the skin)” value in data set [1] (setting [5]) is 26.57 ± 6.55 μg/cm2. For the same compound, the “Release (caffeine liberated in the PBS buffer)” value in data set [1] (setting [6]) is listed as 286.8 ± 28.36 μg/cm2.

Turning to `Cc1c(C)c2c(c(C)c1O)CC[C@@](C)(CCC[C@H](C)CCC[C@H](C)CCCC(C)C)O2` [Example 26-d, vitamin E], the “Vitamin E determination (vitamin E content of sample)” value in data set [2] (0.1% of vitamin E used) is given as 0.0943%. The entries for the “percentage of vitamin E diffused” value in data set [3] (0 hours) and in data set [3] (48 hours) were 0 and 10.32%, respectively. The “Storage (vitamin E still present in the skin)” value in data set [3] (setting [5]) is reported as 1.74 ± 0.24 % diffusion. The “Release (vitamin E liberated in the ethoxydiglycol)” value in data set [3] (setting [6]) was determined as 3.33 ± 0.9 % diffusion.

`OC[C@H]1O[C@@H]2O[C@H]3[C@H](O)[C@@H](O)[C@@H](O[C@H]4[C@H](O)[C@@H](O)[C@@H](O[C@H]5[C@H](O)[C@@H](O)[C@@H](O[C@H]6[C@H](O)[C@@H](O)[C@@H](O[C@H]7[C@H](O)[C@@H](O)[C@@H](O[C@H]8[C@H](O)[C@@H](O)[C@@H](O[C@H]1[C@H](O)[C@H]2O)O[C@@H]8CO)O[C@@H]7CO)O[C@@H]6CO)O[C@@H]5CO)O[C@@H]4CO)O[C@@H]3CO` [commercial β-cyclodextrin, β-cyclodextrin]: the “solubility in water (in words)” value in data set [4] was “soluble in water”. Besides, in data set [4] (nanoparticle protocol with commercial β-cyclodextrin at identical molar concentration), the “nanoparticle formation (in words)” value is reported as “no nanoparticles are formed”. In addition, in the data set on skin of rabbits, the “primary dermal irritation classification” value is “slight irritant for the skin”.

Turning to (Lauroate)y-β-cyclodextrin [Example 2a], the “encapsulation of vitamin E (in words)” value in data set [2] is recorded as “encapsulated the vitamin E highly effectively”. For the same compound, the “primary dermal irritation classification” value in the data set with skin of rabbits is “non irritant to the skin”.
